The text below walks through data of patent publication US5658898A, “Intravenous solutions for a derivative of staurosporine” (CIBA GEIGY Corporation, priority 1994, dated 1997).

One data set is described as follows: water solubility. The data set is classed as physicochemical. The conditions noted are these: room temperature.
The conditions of data set [1]: cited from earlier work.

Broadly, the solubility is how much of the substance goes into solution per volume. A high value points to much dissolved substance.

With `CO[C@@H]1[C@H](N(C)C(=O)c2ccccc2)C[C@H]2O[C@]1(C)n1c3ccccc3c3c4c(c5c6ccccc6n2c5c31)C(=O)NC4` [N-benzoyl-staurosporin], the solubility in the data set “water solubility” was < 0.1 µg/mL.
For the compound `CN[C@@H]1C[C@H]2O[C@@](C)([C@@H]1OC)n1c3ccccc3c3c4c(c5c6ccccc6n2c5c31)C(=O)NC4` [staurosporin], the “water-solubility (in words)” value in data set [1] is given as “low water-solubility”.
